# Data published in patent US20060052282A1, “Diagnostic and therapeutic means for pathologies associated with alpha 2 subunit of the na, k pump” (priority 2002, published 2006).
# Assays:
# HEK293 = assay: Ouabain treatment of transfected HEK293 cells; type: cell-based, human; conditions: 1 μM ouabain; pA2Oua^r-wt versus mock transfected cells
# Description: (§1) As all vertebrate cells present Na,K ATPase activity, the endogenous Na,K pump activity of HeLa cells was quenched to test the ion transport performance of the exogenous mutant forms. A site-directed mutagenesis was carried out to abolish the natural ouabain sensitivity of the ATP1A2 construct by mutagenizing two amino acids, Q116R and N127D, in the first extracellular loop that is part of the ouabain binding site of Na,K ATPase (15).
# HeLa cells = assay: Ouabain treatment of transfected HeLa cells (survival, MTT cell viability); type: cell-based, human; conditions: 1 μM ouabain
# Description: Constructs were transfected by calcium phosphate (HeLa cells) following standard procedures or by Lipofectamine (COS-7 cells), (Gibco, Invitrogene Co., Carlsbad, Calif., USA).
# Cell viability was measured with the MTT (13) reduction assay after 12, 24, 36, 48 and 60 hours. Each experiment was made in triplicate and statistical analysis was done by Student's t-test (homoscedastic).
# as §1
# Constructs were transfected by calcium phosphate (HeLa cells) following standard procedures.
# Cell viability was measured with the MTT reduction assay after 24,48 and 72 hours of 1 μM ouabain challenge. We performed two independent experiments and in each experiment, datapoints are in triplicate.
compound,measurement,setting,value
C[C@@H]1O[C@@H](O[C@H]2C[C@@H](O)[C@]3(CO)[C@H]4[C@H](O)C[C@]5(C)[C@@H](C6=CC(=O)OC6)CC[C@]5(O)[C@@H]4CC[C@]3(O)C2)[C@H](O)[C@H](O)[C@H]1O [ouabain],cell survival in ouabain-containing media compared with HeLa,HEK293,Identical results
same,cell survival in ouabain-containing media,HeLa cells; HeLa cells transfected with ouabain-resistant ATP1A2 construct pA2Oua^r-wt,can survive and grow
same,cell survival under ouabain treatment,HeLa cells; HeLa cells transfected with ouabain-resistant T378N (AHC) ATP1A2 construct,did not survive
same,cell survival under ouabain treatment,HeLa cells; HeLa cells transfected with pA2Oua^r-P764 (L764P),failed to survive
same,cell survival under ouabain treatment,HeLa cells; HeLa cells transfected with pA2Oua^r-R887 (W887R),failed to survive
same,time to death of cells in ouabain-containing media,"HeLa cells; mock transfected HeLa cells (wild-type ATP1A2, non-ouabain resistant)",36 to 48 h
same,cell survival under ouabain treatment,"HeLa cells; simulated heterozygous state, equal amount of wild-type and T378N mutant cDNAs",intermediate behaviour
same,cell survival under ouabain treatment,"HeLa cells; simulated heterozygous states, equal amounts of wild-type and mutant (P764 or R887) constructs",intermediate behavior
